Measurements as given in PubChem BioAssay AID651551 (Sanford-Burnham Center for Chemical Genomics, 2012).
Calls of active or inactive are those of the source.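 Rule for the calls: active = compounds blocking the Peg3 reporter with IC50 up to 10 µM at 6 or 24 hours, yet inert on a control reporter; inactive = the rest.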

Molecular target: PEG-3 (UniProt Q6IN02)
Assay: GAPDH versus PEG-3 reporter suppression – cell-based, luminescence, counter-screen for PEG-3 promoter inhibitor project, SAR follow-up (AID 651551)
Details: HeLa PEG-Prom / GAPDH luciferase reporter, 6 or 24 h, mean of runs, 6 h

Structure (SMILES)	IC50
COc1ccc(Cl)cc1Nc1nc(-c2sc(NC(=O)c3ccccc3)nc2C)cs1	inactive
Cc1nc(NC(=O)c2ccccc2)sc1-c1csc(Nc2cccc(Cl)c2C)n1	> 99 µM (inactive)
COc1ccccc1Nc1nc(-c2sc(NC(=O)c3ccco3)nc2C)cs1	> 99 µM (inactive)
Cc1cc(NC(=O)c2ccccc2)n(-c2nc3ccccc3n2C)n1	inactive
Cc1cc(NC(=O)c2cccc(C)c2C)n(-c2nc3ccccc3[nH]2)n1	inactive
Cc1cc(NC(=O)c2ccccc2C)n(-c2nc3ccccc3[nH]2)n1	inactive
Cc1nc(NC(=O)c2ccccc2)sc1-c1csc(Nc2ccccc2Cl)n1	> 99 µM (inactive)
CCn1cc(C(=O)NCc2ccco2)c(=O)c2cc(S(=O)(=O)N3CCCC3)ccc21	> 99 µM (inactive)
COCCCNC(=O)c1ccc(Cn2c(=O)c3ccccc3n(Cc3ccccc3C#N)c2=O)cc1	> 99 µM (inactive)
COc1ccc(-n2nc(C(=O)NCC(=O)Nc3cc(OC)c(OC)c(OC)c3)c3ccccc3c2=O)cc1OC	> 99 µM (inactive)
Cc1ccc(Cl)cc1Nc1nc(-c2sc(NC(=O)c3ccco3)nc2C)cs1	inactive
Cc1cc(NC(=O)c2ccccc2)n(-c2nc3ccccc3[nH]2)n1	inactive
Cc1nc(NC(=O)c2ccccc2)sc1-c1csc(Nc2ccccc2)n1	> 99 µM (inactive)
Cc1cc(NC(=O)c2ccccc2C(F)(F)F)n(-c2nc3ccccc3[nH]2)n1	inactive

Now from value to molecule:

IC50	Structure (SMILES)
inactive	CCCn1nc(C(=O)Nc2nc(-c3ccncc3)cs2)c2ccccc2c1=O
inactive	CCn1nc(C(=O)Nc2nc(-c3ccccn3)cs2)c2ccccc2c1=O
> 99 µM (inactive)	O=C(Nc1nc2ccccc2s1)c1nn(-c2ccccc2)c(=O)c2ccccc12
> 99 µM (inactive)	COc1ccc(-n2nc(C(=O)NCC(=O)Nc3cccc(OC)c3)c3ccccc3c2=O)cc1
> 99 µM (inactive)	COc1ccc(-n2nc(C(=O)NCC(=O)Nc3ccc(OC)c(OC)c3)c3ccccc3c2=O)cc1
> 99 µM (inactive)	O=C(Nc1nc(-c2ccccc2)cs1)c1nn(-c2ccccc2)c(=O)c2ccccc12
> 99 µM (inactive)	CCCn1nc(C(=O)Nc2nc3ccccc3s2)c2ccccc2c1=O
8.66 µM	CCCn1nc(C(=O)Nc2nc(-c3ccccn3)cs2)c2ccccc2c1=O
> 99 µM (inactive)	O=C(Nc1nccs1)c1nn(-c2ccccc2)c(=O)c2ccccc12

Same assay, conditions: HeLa PEG-Prom / GAPDH luciferase reporter, 6 or 24 h, mean of runs, 24 h

Structure (SMILES)	IC50
COc1ccc(Cl)cc1Nc1nc(-c2sc(NC(=O)c3ccccc3)nc2C)cs1	inactive
Cc1nc(NC(=O)c2ccccc2)sc1-c1csc(Nc2cccc(Cl)c2C)n1	> 99 µM (inactive)
COc1ccccc1Nc1nc(-c2sc(NC(=O)c3ccco3)nc2C)cs1	> 99 µM (inactive)
Cc1cc(NC(=O)c2ccccc2)n(-c2nc3ccccc3n2C)n1	> 99 µM (inactive)
Cc1cc(NC(=O)c2cccc(C)c2C)n(-c2nc3ccccc3[nH]2)n1	> 99 µM (inactive)
Cc1cc(NC(=O)c2ccccc2C)n(-c2nc3ccccc3[nH]2)n1	inactive
Cc1nc(NC(=O)c2ccccc2)sc1-c1csc(Nc2ccccc2Cl)n1	> 99 µM (inactive)
CCn1cc(C(=O)NCc2ccco2)c(=O)c2cc(S(=O)(=O)N3CCCC3)ccc21	> 99 µM (inactive)
COCCCNC(=O)c1ccc(Cn2c(=O)c3ccccc3n(Cc3ccccc3C#N)c2=O)cc1	6.52 µM
COc1ccc(-n2nc(C(=O)NCC(=O)Nc3cc(OC)c(OC)c(OC)c3)c3ccccc3c2=O)cc1OC	> 99 µM (inactive)
Cc1ccc(Cl)cc1Nc1nc(-c2sc(NC(=O)c3ccco3)nc2C)cs1	inactive
Cc1cc(NC(=O)c2ccccc2)n(-c2nc3ccccc3[nH]2)n1	inactive
Cc1nc(NC(=O)c2ccccc2)sc1-c1csc(Nc2ccccc2)n1	inactive
Cc1cc(NC(=O)c2ccccc2C(F)(F)F)n(-c2nc3ccccc3[nH]2)n1	inactive

Now from value to molecule:

IC50	Structure (SMILES)
inactive	CCCn1nc(C(=O)Nc2nc(-c3ccncc3)cs2)c2ccccc2c1=O
6.13 µM	CCn1nc(C(=O)Nc2nc(-c3ccccn3)cs2)c2ccccc2c1=O
> 99 µM (inactive)	O=C(Nc1nc2ccccc2s1)c1nn(-c2ccccc2)c(=O)c2ccccc12
> 99 µM (inactive)	COc1ccc(-n2nc(C(=O)NCC(=O)Nc3cccc(OC)c3)c3ccccc3c2=O)cc1
> 99 µM (inactive)	COc1ccc(-n2nc(C(=O)NCC(=O)Nc3ccc(OC)c(OC)c3)c3ccccc3c2=O)cc1
> 99 µM (inactive)	O=C(Nc1nc(-c2ccccc2)cs1)c1nn(-c2ccccc2)c(=O)c2ccccc12
> 99 µM (inactive)	CCCn1nc(C(=O)Nc2nc3ccccc3s2)c2ccccc2c1=O
inactive	CCCn1nc(C(=O)Nc2nc(-c3ccccn3)cs2)c2ccccc2c1=O
> 99 µM (inactive)	O=C(Nc1nccs1)c1nn(-c2ccccc2)c(=O)c2ccccc12

Molecular target: not listed separately
Assay: as above
Details: HeLa PEG-Prom / GAPDH luciferase reporter, 6 or 24 h; GAPDH; mean of runs, 6 h

Structure (SMILES)	IC50
COc1ccc(Cl)cc1Nc1nc(-c2sc(NC(=O)c3ccccc3)nc2C)cs1	> 99 µM (inactive)
Cc1nc(NC(=O)c2ccccc2)sc1-c1csc(Nc2cccc(Cl)c2C)n1	> 99 µM (inactive)
COc1ccccc1Nc1nc(-c2sc(NC(=O)c3ccco3)nc2C)cs1	inactive
Cc1cc(NC(=O)c2ccccc2)n(-c2nc3ccccc3n2C)n1	> 99 µM (inactive)
Cc1cc(NC(=O)c2cccc(C)c2C)n(-c2nc3ccccc3[nH]2)n1	> 99 µM (inactive)
Cc1cc(NC(=O)c2ccccc2C)n(-c2nc3ccccc3[nH]2)n1	> 99 µM (inactive)
Cc1nc(NC(=O)c2ccccc2)sc1-c1csc(Nc2ccccc2Cl)n1	> 99 µM (inactive)
CCn1cc(C(=O)NCc2ccco2)c(=O)c2cc(S(=O)(=O)N3CCCC3)ccc21	> 99 µM (inactive)
COCCCNC(=O)c1ccc(Cn2c(=O)c3ccccc3n(Cc3ccccc3C#N)c2=O)cc1	> 99 µM (inactive)
COc1ccc(-n2nc(C(=O)NCC(=O)Nc3cc(OC)c(OC)c(OC)c3)c3ccccc3c2=O)cc1OC	> 99 µM (inactive)
Cc1ccc(Cl)cc1Nc1nc(-c2sc(NC(=O)c3ccco3)nc2C)cs1	inactive
Cc1cc(NC(=O)c2ccccc2)n(-c2nc3ccccc3[nH]2)n1	> 99 µM (inactive)
Cc1nc(NC(=O)c2ccccc2)sc1-c1csc(Nc2ccccc2)n1	inactive
Cc1cc(NC(=O)c2ccccc2C(F)(F)F)n(-c2nc3ccccc3[nH]2)n1	inactive

Continued, values first:

IC50	Structure (SMILES)
inactive	CCCn1nc(C(=O)Nc2nc(-c3ccncc3)cs2)c2ccccc2c1=O
inactive	CCn1nc(C(=O)Nc2nc(-c3ccccn3)cs2)c2ccccc2c1=O
> 99 µM (inactive)	O=C(Nc1nc2ccccc2s1)c1nn(-c2ccccc2)c(=O)c2ccccc12
> 99 µM (inactive)	COc1ccc(-n2nc(C(=O)NCC(=O)Nc3cccc(OC)c3)c3ccccc3c2=O)cc1
inactive	COc1ccc(-n2nc(C(=O)NCC(=O)Nc3ccc(OC)c(OC)c3)c3ccccc3c2=O)cc1
> 99 µM (inactive)	O=C(Nc1nc(-c2ccccc2)cs1)c1nn(-c2ccccc2)c(=O)c2ccccc12
> 99 µM (inactive)	CCCn1nc(C(=O)Nc2nc3ccccc3s2)c2ccccc2c1=O
inactive	CCCn1nc(C(=O)Nc2nc(-c3ccccn3)cs2)c2ccccc2c1=O
inactive	O=C(Nc1nccs1)c1nn(-c2ccccc2)c(=O)c2ccccc12

Same assay, conditions: HeLa PEG-Prom / GAPDH luciferase reporter, 6 or 24 h; GAPDH; mean of runs, 24 h

Structure (SMILES)	IC50
COc1ccc(Cl)cc1Nc1nc(-c2sc(NC(=O)c3ccccc3)nc2C)cs1	9.9 µM
Cc1nc(NC(=O)c2ccccc2)sc1-c1csc(Nc2cccc(Cl)c2C)n1	inactive
COc1ccccc1Nc1nc(-c2sc(NC(=O)c3ccco3)nc2C)cs1	4.17 µM
Cc1cc(NC(=O)c2ccccc2)n(-c2nc3ccccc3n2C)n1	> 99 µM (inactive)
Cc1cc(NC(=O)c2cccc(C)c2C)n(-c2nc3ccccc3[nH]2)n1	inactive
Cc1cc(NC(=O)c2ccccc2C)n(-c2nc3ccccc3[nH]2)n1	inactive
Cc1nc(NC(=O)c2ccccc2)sc1-c1csc(Nc2ccccc2Cl)n1	7.52 µM
CCn1cc(C(=O)NCc2ccco2)c(=O)c2cc(S(=O)(=O)N3CCCC3)ccc21	inactive
COCCCNC(=O)c1ccc(Cn2c(=O)c3ccccc3n(Cc3ccccc3C#N)c2=O)cc1	4.68 µM
COc1ccc(-n2nc(C(=O)NCC(=O)Nc3cc(OC)c(OC)c(OC)c3)c3ccccc3c2=O)cc1OC	6.31 µM
Cc1ccc(Cl)cc1Nc1nc(-c2sc(NC(=O)c3ccco3)nc2C)cs1	7.63 µM
Cc1cc(NC(=O)c2ccccc2)n(-c2nc3ccccc3[nH]2)n1	> 99 µM (inactive)
Cc1nc(NC(=O)c2ccccc2)sc1-c1csc(Nc2ccccc2)n1	inactive
Cc1cc(NC(=O)c2ccccc2C(F)(F)F)n(-c2nc3ccccc3[nH]2)n1	8.73 µM

Results, then the molecule that gave them:

IC50	Structure (SMILES)
5.32 µM	CCCn1nc(C(=O)Nc2nc(-c3ccncc3)cs2)c2ccccc2c1=O
3.96 µM	CCn1nc(C(=O)Nc2nc(-c3ccccn3)cs2)c2ccccc2c1=O
inactive	O=C(Nc1nc2ccccc2s1)c1nn(-c2ccccc2)c(=O)c2ccccc12
inactive	COc1ccc(-n2nc(C(=O)NCC(=O)Nc3cccc(OC)c3)c3ccccc3c2=O)cc1
inactive	COc1ccc(-n2nc(C(=O)NCC(=O)Nc3ccc(OC)c(OC)c3)c3ccccc3c2=O)cc1
> 99 µM (inactive)	O=C(Nc1nc(-c2ccccc2)cs1)c1nn(-c2ccccc2)c(=O)c2ccccc12
inactive	CCCn1nc(C(=O)Nc2nc3ccccc3s2)c2ccccc2c1=O
7.06 µM	CCCn1nc(C(=O)Nc2nc(-c3ccccn3)cs2)c2ccccc2c1=O
8.39 µM	O=C(Nc1nccs1)c1nn(-c2ccccc2)c(=O)c2ccccc12
